# Read-outs that look alike come from different tables or passages of the source. Marks after values point to notes of the source that are not given here. Ends that are not written are not given here.
# B1: TNF-α: Recombinant murine TNF-α, an activator of death receptors (protein, UniProt P06804 80-235, looked up)
# Tumor necrosis factor, …: LRSSSQNSSDKPVAHVVANHQVEEQLEWLSQRANALLANGMDLKDNQLVVPADGLYLVYSQVLFKGQGCPDYVLLTHTVSRFAISYQEKVNLLSAVKSPCPKDTPEGAELKPWYEPIYLGGVFQLEKGDQLSAEVNLPKYLDFAESGQVYFGVIAL
# modifications: Tumor necrosis factor, soluble form
# Key:
# [1] = tested on: osteoblastic cells derived from murine calvaria; test: Apoptosis of osteoblastic cells derived from murine calvaria by trypan blue uptake; format: cell-based; settings: 6 h; for induction of apoptosis of osteoblastic cells: etoposide 50 μg/ml, TNF-α, dexamethasone 10^−6 M
# MLO-Y4 osteocytic cells = settings: for inhibition of glucocorticoid-induced apoptosis: then dexamethasone 10^−6 M for 6 h; for effect on the prevention of MLO-Y4 cell apoptosis by sCT / effect on the anti-apoptotic effect of alendronate, IG-9402 and etidronate: inhibitor 30 min, 10^−6 M dexamethasone 6 h; for effect on the prevention of MLO-Y4 cell apoptosis by sCT: 5 ng/ml sCT 1 h; for effect on the anti-apoptotic effect of alendronate, IG-9402 and etidronate: 10^−7 M bisphosphonate 1 h; for percentage of cells stained with trypan blue (induction of apoptosis): MLO-Y4, 6 h, dexamethasone 10^−6 M, etoposide 50 μg/ml, TNF-α 1 nM
# Protocol: The murine long bone-derived osteocytic cell line MLO-Y4 was provided by Dr. Lynda Bonewald (University of Texas Health Center at San Antonio, Tex.). Cells were cultured in phenol red-free αMEM supplemented with 5% FBS, 5% bovine calf serum, 100 U/ml penicillin and 100 μg/ml streptomycin. Cells were plated at 1-2×10^4 cells/cm^2 on collagen type I coated plates, as described previously (Kato, et al., 1997. J. Bone Miner. Res. 12:2014-2023). Murine calvaria cells were obtained from neonatal (3- to 6-day old) C57BL/6J mice by controlled digestion with collagenase, as previously described (Bellido, et al., 1997. Endocrinology 138:3666-3676). After isolation, cells were cultured in 10% FBS at 1-2×10^4 cells/cm^2 until 90-95% confluence. Subsequently, cells were harvested and frozen for later use. UMR-106-06 cells were cultured in phenol red-free MEM supplemented with 10% FBS, 1% non-essential aminoacids, 100 U/ml penicillin, and 100 μg/ml streptomycin (Sakagami, et al., Manolagas. 1993. J. Bone Miner. Res. 8:811-816).
# Nonadherent cells were combined with adherent cells released from the culture dish using trypsin-EDTA, resuspended in medium containing serum, and collected by centrifugation. […] At least 100 cells per condition were counted.
# (§1) MLO-Y4 osteocytic cells and calvaria osteoblastic cells were treated for 1 hour in the absence or presence of different BPs or sCT. Subsequently, dexamethasone, etoposide or TNF-α were added to obtain final concentrations of 10^−6 M, […], or 1 nM, respectively, and cells were incubated for additional 6 h. The effect of PD98059 (50 μM) or UO126 (1 μM) was evaluated by pretreating the cells with the inhibitors for 30 min before adding the BPs or sCT. In the experiment using the membrane permeable caspase inhibitor DEVD, cells were cultured for 1 hour with 50 nM DEVD-CHO and subsequently the pro-apoptotic agents were added to reach the final concentrations indicated above. […] At least 500 cells from fields selected by systematic random sampling were examined for each experimental condition. […] The TUNEL reaction was performed according to the manufacturer's instructions, using 0.15% CuSO4 for color enhancement. Negative controls were made by omitting the transferase from the reaction. Cells presenting brown nuclear staining were considered positive. More than 500 cells per condition were analyzed. Apoptosis of parental MLO-Y4 or calvaria cells was quantified by trypan blue staining (Jilka, et al., 1998. J. Bone Miner. Res. 13:793-802). Nonadherent cells were combined with adherent cells released from the culture dish using trypsin-EDTA, resuspended in medium containing serum, and collected by centrifugation. […] At least 100 cells per condition were counted.
# MLO-Y4 cells were incubated for 1 h in vehicle or 50 nM DEVD-CHO. Subsequently, etoposide, TNF-α, or dexamethasone (Dex) were added at final concentrations of 50 μg/ml, 1 nM, or 10^−6 M, respectively, and cells were incubated for additional 6 h. Dead cells were enumerated by trypan blue uptake.
# The percentage of dead cells was determined by trypan blue uptake, as in Methods and Materials. Bars represent the mean ±S.D. of three independent measurements.
# Subsequently, etoposide, TNF-α, or dexarnethasone were added to reach final concentrations of 50 μg/ml, 1 nM, or 10^−6 M, respectively, and cells were cultured for 6 h, as in FIG. 1. The percentage of dead cells was determined by trypan blue uptake. Bars represent the mean ±S.D. of three independent measurements. Data were analyzed by two-way ANOVA.
# osteoclast = settings: cited from earlier work
# ERK1/2 = ERK1/2 phosphorylation in MLO-Y4 cells by Western blot; format: cell-based, murine; settings: for effect on bisphosphonate-induced phosphorylation of ERKs: 50 μM PD98059 or 1 μM UO126 pretreatment, 10^−7 M bisphosphonate 2 min
# Protocol: Monolayers were washed with cold 20 mM Tris-HCl (pH 7.5), 150 mM NaCl, 1 mM sodium orthovanadate and lysed in the lysis buffer mentioned above. Insoluble material was pelleted in a microcentrifuge at 14,000×rpm for 10 mn. […] Proteins (10 μg) were separated on 7.5% SDS-polyacrylamide gels and electrotransferred to a polyvinylidene difluoride membrane. Immunoblotting was performed using a mouse monoclonal antibody recognizing tyrosine phosphorylated ERK1/2, or a rabbit polyclonal antibody recognizing total ERK1/2, followed by incubation with either an antimouse or an antirabbit antibody conjugated with horseradish peroxidase. Blots were developed using Chemiluminescence according to the manufacturer's recommendations. Quantitation of the intensity of the bands in the autoradiograms was performed using a scanner (Microtek Lab., Redondo Beach, Calif.).
# [2] = tested on: MLO-Y4 cells stably transduced with GFP; test: Apoptosis by nuclear morphology of MLO-Y4 cells transduced with nuclear GFP; format: cell-based, murine; settings: absence of dexamethasone; 10^−7 M
# Protocol: Supernatants containing retroviral particles were collected 24-48 h after transfection, and used immediately to infect cell cultures. […] Subsequently, cells were exposed to the supernatants containing the viral particles once more before being trypsinized and plated at low density.
# Cells presenting brown nuclear staining were considered positive. More than 500 cells per condition were analyzed. […] At least 100 cells per condition were counted.
# [3] = tested on: osteoblastic cells and osteocytic cells; test: Anti-apoptotic effects of estrogens on osteoblastic and osteocytic cells in vitro; format: cell-based
# osteocytic MLO-Y4 cells = test: TUNEL reaction in MLO-Y4 cells; format: cell-based, murine; settings: 10^−7 M alendronate 1 h and/or 10^−6 M dexamethasone 6 h
# Protocol: as §1
# [4] = tested on: osteocyte and osteoblast apoptosis in murine vertebral cancellous bone; test: Murine model of glucocorticoid excess: TUNEL in vertebral bone sections and spinal BMD by DEXA; format: in vivo, Male Swiss Webster mice; settings: prednisolone 2.1 mg/kg/day pellets, alendronate 0.75 mg/kg/d s.c., 56 days, mean ±SD
# Description: To adjust for the difference in the metabolic rate in mice compared to that in humans, the daily glucocorticoid dose was divided by the metabolic weight, i.e. the weight in kg to the 3/4 power (Borchard, et al., 1992. Drug dosage in laboratory animals: a handbook. CRC Press, Inc., Boca Raton, Fla. 514 pp.; Kleiber, M. 1961. The fire of life: an introduction to animal energetics. New York). […] One control group received saline injections with placebo pellet implantation while another group received saline injections plus prednisolone pellets. Dual-energy X-ray absorptiometry (DEXA) was used to determine spinal bone mineral density (spinal BMD) at the end of the 56-day experiment, as previously described (Weinstein et al., 1998. J. Clin. Invest. 102:274-282).
# Sections of vertebral bone (L1 to L5) were mounted on silane-coated glass slides (Scientific Device Lab, Inc., Des Plains, Ill.), deplasticized and incubated in 10 mM citrate buffer, pH 7.6, in a microwave oven at 98° C. for 5 minutes (Jilka, et al., 1998. J. Bone Miner. Res. 13:793-802). Slides were then incubated with 0.5% pepsin for 30 minutes at 37° C. Apoptotic cells were detected by the TUNEL reaction as described above using 0.15% CuSO4 for color enhancement of the diaminobenzidine in sections counterstained with 1% methyl green. The TUNEL reaction is noted within cell nuclei and the cells whose nuclei were clearly brown from the streptavidin-horse radish peroxidase conjugate instead of blue-green from the methyl green were interpreted as positive. Plastic-embledded sections of weaned rat mammary tissue were used as a positive control. Negative controls were made by omitting the transferase from the TUNEL reaction. Morphological changes characteristic of apoptosis were carefully examined to minimize ambiguity regarding the interpretation of results. […] Osteocytes were identified inside lacunae in mineralized bone (FIG. 11A). Osteoblasts were identified as cuboidal cells lining the osteoid-covered trabecular perimeter (FIG. 11B).
molecule,measurement,setting,value
"CN(C)CCC(N)(P(=O)(O)O)P(=O)(O)O [IG-9402, 1-amino-3-(N,N-dimethylamino)-propyliden-1,1-bisphosphonic acid]","inhibition of apoptosis of osteoblastic cells induced by dexamethasone, TNF-α and etoposide","[1]; 10^−7 M, 1 h pretreatment",inhibited apoptosis
same,prevention of apoptosis induced by etoposide or TNF-α,"MLO-Y4 osteocytic cells; 10^−7 M, 1 h pretreatment, 6 h",prevented apoptosis
same,cell viability in the absence of pro-apoptotic stimuli,MLO-Y4 osteocytic cells; 10^−10 to 10^−3 M,did not affect cell viability
same,inhibitory effect on glucocorticoid-induced apoptosis at high concentrations,MLO-Y4 osteocytic cells; concentrations higher than 10^−6 M,persisted at high concentrations
same,antiresorptive activity / effect on osteoclast,osteoclast,lacks anti-resorptive activity
same,"potency ratio to affect the osteoclast, relative to pamidronate",osteoclast,⅙
same,antiresorptive activity / effect on osteoclast,osteoclast; listed as IG9204,do not block osteoclast activity at all
same,antiresorptive activity / effect on osteoclast,osteoclast; listed as IG9402,devoid of any antiresorptive activity
same,earliest time at which increased ERK phosphorylation was observed,ERK1/2; 10^−7 M,0.5 min
same,phosphorylation of ERK 1 and 2,ERK1/2; 10^−7 M,rapid and transient increase
same,proportion of cells exhibiting chromatin condensation and/or nuclear fragmentation versus untreated,[2],no significant differences
C[C@]12CC[C@@H]3c4ccc(O)cc4CC[C@H]3[C@@H]1CC[C@@H]2O [17β-estradiol],anti-apoptotic effects on osteoblastic cells in vitro and osteocytic cells,[3],potent anti-apoptotic effects
Asp-Glu-Val-Asp-aldehide (DEVD-aldehyde) [DEVD-CHO],prevention of the increase in cell membrane permeability detected by trypan blue,MLO-Y4 osteocytic cells; 50 nM DEVD-CHO 1 h before pro-apoptotic agents,prevented
NCCC(O)(P(=O)(O)O)P(=O)(O)O [pamidronate],inhibition of glucocorticoid-induced apoptosis,MLO-Y4 osteocytic cells; 1 h pretreatment,Comparable responses
same,proportion of cells exhibiting chromatin condensation and/or nuclear fragmentation versus untreated,[2],no significant differences
COc1cccc(-c2cc(=O)c3ccccc3o2)c1N [PD98059],effect on the prevention of MLO-Y4 cell apoptosis by sCT,MLO-Y4 osteocytic cells,abolished
same,"effect on the anti-apoptotic effect of alendronate, IG-9402 and etidronate",MLO-Y4 osteocytic cells,abrogated the anti-apoptotic effect
same,effect on bisphosphonate-induced phosphorylation of ERKs,ERK1/2,abolished
C[C@@H]1C[C@H]2[C@@H]3CCC4=CC(=O)C=C[C@]4(C)[C@@]3(F)[C@@H](O)C[C@]2(C)[C@@]1(O)C(=O)CO [dexamethasone],concentrations giving pro-apoptotic effects,MLO-Y4 osteocytic cells; MLO-Y4 cells,10^−7-10^−5 M
same,% of TUNEL positive cells,osteocytic MLO-Y4 cells,11.87* %
same,Number of TUNEL positive cells,osteocytic MLO-Y4 cells,66
same,number of TUNEL negative cells,osteocytic MLO-Y4 cells,490
C[C@]12CC[C@@H]3c4ccc(O)cc4C[C@@H](CCCCCCCCC[S+]([O-])CCCC(F)(F)C(F)(F)F)[C@H]3[C@@H]1CC[C@@H]2O (some centres unmarked) [ICI 182780],effect on the anti-apoptotic effects of the estrogen compounds,[3],diminished
C[C@]12CC[C@@H]3c4ccc(O)cc4CC[C@H]3[C@@H]1CC[C@H]2O [17α-estradiol],anti-apoptotic effects on osteoblastic cells in vitro and osteocytic cells,[3],potent anti-apoptotic effects
COc1cc([C@@H]2c3cc4c(cc3[C@@H](O[C@@H]3O[C@@H]5CO[C@@H](C)O[C@H]5[C@H](O)[C@H]3O)[C@H]3COC(=O)[C@H]23)OCO4)cc(OC)c1O [etoposide],induction of apoptosis of osteoblastic cells,[1],induced apoptosis
same,percentage of cells stained with trypan blue (induction of apoptosis),MLO-Y4 osteocytic cells,A similar effect was obtained
N#CC(=C(/N)Sc1ccccc1N)/C(C#N)=C(\N)Sc1ccccc1N [U0126],effect on the prevention of MLO-Y4 cell apoptosis by sCT,MLO-Y4 osteocytic cells,abolished
same,"effect on the anti-apoptotic effect of alendronate, IG-9402 and etidronate",MLO-Y4 osteocytic cells,abrogated the anti-apoptotic effect
same,effect on bisphosphonate-induced phosphorylation of ERKs,ERK1/2,abolished
C[C@]12C=CC(=O)C=C1CC[C@@H]1[C@@H]2[C@@H](O)C[C@@]2(C)[C@H]1CC[C@]2(O)C(=O)CO [prednisolone],Spinal BMD (% change),[4]; DEXA,−12.48 ± 3.77 % change
same,Apoptotic osteoblasts (%),[4]; vertebral cancellous bone,19.79 ± 5.17 %
same,Apoptotic osteocytes (%),[4]; vertebral cancellous bone,2.37 ± 0.87%
C[C@@]12CCC[C@H]1[C@@H]1CCc3cc(O)ccc3[C@H]1CC2 [estratriene-3-ol],anti-apoptotic effects on osteoblastic cells in vitro and osteocytic cells,[3],potent anti-apoptotic effects
CN(C)CCC(O)(P(=O)(O)O)P(=O)(O)O [olpadronate],inhibition of glucocorticoid-induced apoptosis,MLO-Y4 osteocytic cells; 1 h pretreatment,Comparable responses
same,antiresorptive activity / effect on osteoclast,osteoclast,effective inhibitor of the osteoclast and of bone resorption
same,proportion of cells exhibiting chromatin condensation and/or nuclear fragmentation versus untreated,[2],no significant differences
B1,induction of apoptosis of osteoblastic cells,[1],induced apoptosis
same,percentage of cells stained with trypan blue (induction of apoptosis),MLO-Y4 osteocytic cells,A similar effect was obtained
